# Test results taken from patent publication US12624017B2, “Salt form of isoquinolinone type compound as rock inhibitor and preparation method therefor” (GUANGZHOU OCUSUN OPHTHALMIC BIOTECHNOLOGY CO., LTD., priority 2020, dated 2026).
# System: New Zealand rabbits with normal intraocular pressure
# Test: Intraocular pressure reduction, normal intraocular pressure, eye drops in both eyes for 14 days (Operation I)
# Assay type: in vivo, New Zealand white rabbits
# Details: for Change in intraocular pressure: vs negative control
# Source text: An intraocular pressure reduction effect and potential ocular toxicity of the compound of formula (I) were inspected with rabbits with normal intraocular pressure by repeated administration of eye drops for 14 days.
# Male New Zealand white rabbits, aged 97 to 127 days, weighted 2.6-3.5 kg, purchased from Pizhou Oriental Breeding Co., Ltd.
# The Male New Zealand white rabbits were randomly divided into 7 groups according to body weights, 6 rabbits/group. The animals in Groups 1 to 7 were administrated dropwise with a solvent/control/test article in both eyes in an administration volume of 50 μL/eye, once a day for 14 consecutive days, and the day of first administration was recorded as Day 1. The intraocular pressures of the animals were measured before administration, as well as at 1, 2, 4, 6, 8 and 10 h after administration, respectively. On Days 2 to 14, the intraocular pressures of animals in the K-115 administration group were measured at 1 h after daily administration; and intraocular pressures of the animals in the remaining groups were measured at 4 h after daily administration.
# [1] = 4.0 mg/mL once a day, Day 4, 4 h after daily administration
# [2] = 4.0 mg/mL once a day, Day 5, 4 h after daily administration
# [3] = 4.0 mg/mL once a day, Day 6, 4 h after daily administration
# [4] = 4.0 mg/mL once a day, Day 7, 4 h after daily administration
# [5] = 4.0 mg/mL, Day 1, 1 h after administration
# [6] = 4.0 mg/mL, Day 1, 2 h after administration
# [7] = 4.0 mg/mL, Day 1, 4 h after administration
# [8] = 4.0 mg/mL, Day 1, 6 h after administration
# [9] = 4.0 mg/mL, Day 1, 8 h after administration
# [10] = 4.0 mg/mL, Day 1, 10 h after administration
# [11] = 4.0 mg/mL, Day 1, before administration
# [12] = 8.0 mg/mL once a day, Day 2, 4 h after daily administration
# [13] = 8.0 mg/mL once a day, Day 3, 4 h after daily administration
# [14] = 8.0 mg/mL once a day, Day 4, 4 h after daily administration
# [15] = 8.0 mg/mL once a day, Day 5, 4 h after daily administration
# [16] = 8.0 mg/mL once a day, Day 6, 4 h after daily administration
# [17] = 8.0 mg/mL once a day, Day 7, 4 h after daily administration
# [18] = 8.0 mg/mL, Day 1, 1 h after administration
compound,measurement,setting,value
Cc1ccc(C(=O)OCn2cc(C)c3c(S(=O)(=O)N4CC[C@H](N)C4)cccc3c2=O)c(C)c1 [Compound of formula (I)],Change in intraocular pressure,"4.0 mg/mL once a day, Day 3, 4 h after daily administration",4.81 mmHg
same,Average intraocular pressure in both eyes,[1],5.53 mmHg
same,Change in intraocular pressure,[1],5.08 mmHg
same,Average intraocular pressure in both eyes,[2],6.61 mmHg
same,Change in intraocular pressure,[2],4.36 mmHg
same,Average intraocular pressure in both eyes,[3],5.47 mmHg
same,Change in intraocular pressure,[3],3.84 mmHg
same,Average intraocular pressure in both eyes,[4],5.56 mmHg
same,Change in intraocular pressure,[4],4.5 mmHg
same,Change in intraocular pressure,"4.0 mg/mL once a day, Day 8, 4 h after daily administration",4.53 mmHg
same,Change in intraocular pressure,"4.0 mg/mL once a day, Day 9, 4 h after daily administration",3.97 mmHg
same,Change in intraocular pressure,"4.0 mg/mL once a day, Day 10, 4 h after daily administration",4.67 mmHg
same,Change in intraocular pressure,"4.0 mg/mL once a day, Day 11, 4 h after daily administration",3.86 mmHg
same,Change in intraocular pressure,"4.0 mg/mL once a day, Day 12, 4 h after daily administration",3.64 mmHg
same,Change in intraocular pressure,"4.0 mg/mL once a day, Day 13, 4 h after daily administration",4.36 mmHg
same,Change in intraocular pressure,"4.0 mg/mL once a day, Day 14, 4 h after daily administration",4.64 mmHg
same,Average intraocular pressure in both eyes,[5],10.44 mmHg
same,Change in intraocular pressure,[5],−0.13 mmHg
same,Average intraocular pressure in both eyes,[6],7.81 mmHg
same,Change in intraocular pressure,[6],3.16 mmHg
same,Average intraocular pressure in both eyes,[7],6.47 mmHg
same,Change in intraocular pressure,[7],4.84 mmHg
same,Average intraocular pressure in both eyes,[8],6.22 mmHg
same,Change in intraocular pressure,[8],5.72 mmHg
same,Average intraocular pressure in both eyes,[9],7.33 mmHg
same,Change in intraocular pressure,[9],5.64 mmHg
same,Average intraocular pressure in both eyes,[10],8.64 mmHg
same,Change in intraocular pressure,[10],5.78 mmHg
same,Average intraocular pressure in both eyes,[11],9.67 mmHg
same,Change in intraocular pressure,[11],0.22 mmHg
same,Average intraocular pressure in both eyes,[12],6.33 mmHg
same,Change in intraocular pressure,[12],4.75 mmHg
same,Average intraocular pressure in both eyes,[13],5.78 mmHg
same,Change in intraocular pressure,[13],4.61 mmHg
same,Average intraocular pressure in both eyes,[14],5.97 mmHg
same,Change in intraocular pressure,[14],4.64 mmHg
same,Average intraocular pressure in both eyes,[15],6.42 mmHg
same,Change in intraocular pressure,[15],4.55 mmHg
same,Average intraocular pressure in both eyes,[16],5.56 mmHg
same,Change in intraocular pressure,[16],3.75 mmHg
same,Average intraocular pressure in both eyes,[17],5.28 mmHg
same,Change in intraocular pressure,[17],4.78 mmHg
same,Change in intraocular pressure,"8.0 mg/mL once a day, Day 8, 4 h after daily administration",5.59 mmHg
same,Change in intraocular pressure,"8.0 mg/mL once a day, Day 9, 4 h after daily administration",4.25 mmHg
same,Change in intraocular pressure,"8.0 mg/mL once a day, Day 10, 4 h after daily administration",4.19 mmHg
same,Change in intraocular pressure,"8.0 mg/mL once a day, Day 11, 4 h after daily administration",4.16 mmHg
same,Change in intraocular pressure,"8.0 mg/mL once a day, Day 12, 4 h after daily administration",3.97 mmHg
same,Change in intraocular pressure,"8.0 mg/mL once a day, Day 13, 4 h after daily administration",4.72 mmHg
same,Change in intraocular pressure,"8.0 mg/mL once a day, Day 14, 4 h after daily administration",4.03 mmHg
same,Average intraocular pressure in both eyes,[18],7.69 mmHg
same,Change in intraocular pressure,[18],2.62 mmHg
